For six molecules, ED50 and Activity results are on record in ChEMBL document CHEMBL3272053, “(exo, exo)-2-Aryltropane-3-carboxylic esters, hypoglycemic agents with accompanying analgesic activity” (J Med Chem, 1978).

Activity calls are given as the source filed them. No cut-off for these calls is given here.

Data set [1] relates to Rattus norvegicus. Briefly: Analgesic activity in po dosed rat assessed as reduction of intraarterial bradykinin-induced pain response. The class given is functional.
For data set [2], the system named is Rattus norvegicus. Briefly: Narcotic analgesic activity in fasted Sprague-Dawley rat at 240 mg/kg, po measured at 60 mins by D'Amour-Smith tail-flick test relative to control. In kind it is functional. In general terms: In hot-plate and tail-flick tests a longer latency is read as antinociception.
For data set [3], the system named is Rattus norvegicus. Briefly: Toxicity in Sprague-Dawley rat assessed as convulsion at 480 mg/kg, po. In kind it is organism-based. Also on record: dose 480 mg/kg, route oral. The settings on record: in vivo.
Data set [4] relates to Rattus norvegicus. Briefly: Hypoglycemic activity in Sprague-Dawley rat assessed as reduction of blood glucose level at 100 mg/kg, po by glucagon-impaired glucose disposal test relative to control. The arrangement: scale not given: the % may be the effect or the level left. In kind it is functional.
In data set [5] the test system is Mus musculus. Briefly: Analgesic activity in sc dosed Swiss-Webster mouse assessed as reduction of acetylcholine-induced writhing. The class given is functional. The conditions noted are these: Mus musculus, Swiss-Webster, sc; read-out: ED50. Background: Writhing tests count abdominal constrictions after an irritant is injected.
For data set [6], the system named is Rattus norvegicus. Briefly: Toxicity in Sprague-Dawley rat assessed as tremor at 480 mg/kg, po. The class given is organism-based. The arrangement: dose 480 mg/kg, route oral. The conditions noted are these: in vivo.
Data set [7] deals with Rattus norvegicus. The data set can be described thus: Narcotic analgesic activity in fasted Sprague-Dawley rat at 480 mg/kg, po measured at 60 mins by D'Amour-Smith tail-flick test relative to control. In kind it is functional.
The subject of data set [8] is Rattus norvegicus. Briefly: Toxicity in Sprague-Dawley rat assessed as convulsion at 120 mg/kg, sc. The class given is organism-based. The arrangement: dose 120 mg/kg, route subcutaneous. The conditions noted are these: in vivo.
Data set [9] deals with Rattus norvegicus. Briefly: Narcotic antagonist activity in fed Sprague-Dawley rat assessed as decrease in phenazocine-induced analgesic activity at 1 mg/kg, sc. The arrangement: dose 1 mg/kg. In kind it is functional, organism-based.
Data set [10] deals with Rattus norvegicus. Briefly: Narcotic analgesic activity in fed Sprague-Dawley rat at 120 mg/kg, sc measured at 30 mins by D'Amour-Smith tail-flick test. The settings on record: route subcutaneous. The class given is functional.
Data set [11] relates to Rattus norvegicus. The data set can be described thus: Hypoglycemic activity in Sprague-Dawley rat assessed as reduction of blood glucose level at 87 mg/kg, po by glucagon-impaired glucose disposal test relative to control. The arrangement: scale not given: the % may be the effect or the level left. The class given is functional.
The subject of data set [12] is Rattus norvegicus. The data set can be described thus: Narcotic antagonist activity in fed Sprague-Dawley rat assessed as decrease in phenazocine-induced analgesic activity at 80 mg/kg, sc. In kind it is functional.
The test system of data set [13] is Rattus norvegicus. The data set can be described thus: Toxicity in Sprague-Dawley rat assessed as tremor at 30 mg/kg, sc. Also on record: dose 30 mg/kg, route subcutaneous. In kind it is organism-based. The conditions noted are these: in vivo.
For data set [14], the system named is Rattus norvegicus. The data set can be described thus: Toxicity in Sprague-Dawley rat assessed as tremor at 240 mg/kg, po. The class given is organism-based. Also on record: dose 240 mg/kg, route oral. The conditions noted are these: in vivo.
Data set [15] deals with Mus musculus. Briefly: Analgesic activity in Swiss-Webster mouse assessed as reduction of acetylcholine-induced writhing at 50 mg/kg, po relative to control. The class given is functional. Also on record: scale not given: the % may be the effect or the level left.
Data set [16] has as its system Rattus norvegicus. The data set can be described thus: Hypoglycemic activity in glucose loaded Sprague-Dawley rat assessed as reduction of blood glucose level at 94 mg/kg, po relative to control. Also on record: scale not given: the % may be the effect or the level left. The class given is functional.
Data set [17] has as its system Rattus norvegicus. Briefly: Toxicity in Sprague-Dawley rat assessed as rigidity at 240 mg/kg, po. Also on record: dose 240 mg/kg, route oral. The conditions noted are these: in vivo. In kind it is organism-based.
Data set [18] relates to Rattus norvegicus. The data set can be described thus: Narcotic analgesic activity in fasted Sprague-Dawley rat at 240 mg/kg, po measured at 15 mins by D'Amour-Smith tail-flick test relative to control. In kind it is functional.
Data set [19] has as its system Rattus norvegicus. The data set can be described thus: Narcotic analgesic activity in fasted Sprague-Dawley rat at 120 mg/kg, po measured at 15 mins by D'Amour-Smith tail-flick test relative to control. In kind it is functional.
The subject of data set [20] is Rattus norvegicus. The data set can be described thus: Hypoglycemic activity in Sprague-Dawley rat assessed as reduction of blood glucose level at 87 mg/kg, po by glucagon-impaired glucose disposal test in presence of microsomal enzyme inhibitor SKF 525-A. In kind it is functional, organism-based. The arrangement: dose 87 mg/kg.
Data set [21] deals with Rattus norvegicus. The data set can be described thus: Toxicity in Sprague-Dawley rat assessed as tremor at 120 mg/kg, po. The class given is organism-based. Also on record: dose 120 mg/kg, route oral. The conditions noted are these: in vivo.
Data set [22] concerns Rattus norvegicus. The data set can be described thus: Toxicity in Sprague-Dawley rat assessed as hyperexcitability at 120 mg/kg, po. Also on record: dose 120 mg/kg, route oral. The conditions noted are these: in vivo. In kind it is organism-based.
Data set [23] has as its system Rattus norvegicus. Briefly: Hypoglycemic activity in glucose loaded Sprague-Dawley rat assessed as reduction of blood glucose level at 84 mg/kg, po relative to control. The class given is functional. The arrangement: scale not given: the % may be the effect or the level left.
The subject of data set [24] is Mus musculus. Briefly: Analgesic activity in po dosed Swiss-Webster mouse assessed as reduction of acetylcholine-induced writhing. In kind it is functional.
The subject of data set [25] is Rattus norvegicus. Briefly: Analgesic activity in po dosed rat assessed as reduction of intraarterial bradykinin-induced pain response measured up to 120 mins. In kind it is functional. The settings on record: 2 h.
The subject of data set [26] is Rattus norvegicus. The data set can be described thus: Hypoglycemic activity in glucose/glycogen loaded Sprague-Dawley rat assessed as reduction of blood glucose level at 87 mg/kg, po. The class given is functional, organism-based. The arrangement: dose 87 mg/kg.
The test system of data set [27] is Rattus norvegicus. The data set can be described thus: Narcotic analgesic activity in po dosed fasted Sprague-Dawley rat measured at 60 mins by D'Amour-Smith tail-flick test. The class given is functional. The settings on record: Rattus norvegicus, Sprague-Dawley, Tail, po, 1 h; read-out: ED50.

A word on the ED50: it is the dose that gives a 50% effect, or the effect in half of the subjects. With `COC(=O)[C@H]1C[C@H]2CC[C@H]([C@H]1c1ccc[nH]1)N2C`, the figures for the ED50 in [1] and in data set [5] were 8.5 mg/kg and 18 mg/kg, respectively. The Activity in data set [2] is reported as 19%; in data set [3], “Toxic”; in data set [4], 30%; in data set [6] it was “Toxic”; in [7], 86%.
On to `CC(=O)[C@H]1C[C@H]2CC[C@H]([C@H]1c1ccccc1)N2C.Cl`, for which the Activity entry in data set [8] is recorded as “Toxic”; in data set [10] it was less than 20%; in [11], 32%; in data set [13] it was “Toxic”. Besides, the result in [9] and in [12] was Active. Besides, in [5], the ED50 was found to be 7 mg/kg.
Consider `COC(=O)[C@H]1C[C@H]2CC[C@@H]3[C@H]1c1sccc1C[N+]23[O-]`, for which the Activity result is “Toxic” in data set [14]; 14% in [2]; 67% in data set [15]; less than 20% in data set [16]; “Toxic” in data set [17]; 41% in data set [18].
As for `COC(=O)[C@H]1C[C@H]2CC[C@@H](N2)[C@H]1c1ccccc1.Cl`, the ED50 in data set [5] was 4 mg/kg. The Activity is on record as 31% in data set [11], 69% in data set [19], “Toxic” in [21] and “Toxic” in data set [22]. The result in data set [20] was Active.
Consider `COC(=O)[C@H]1C[C@H]2CC[C@H]([C@H]1C)N2C.Cl`, for which the Activity in data set [23] is given as less than 20%.
As for `COC(=O)[C@H]1CCCN(C)[C@H]1c1cccs1` (relative stereo), the 50% effective dose (ED50) turned out to be 11 mg/kg in data set [24], 111 mg/kg in data set [25], 3.8 mg/kg in [5] and 112 mg/kg in data set [27]. Further, the result in data set [26] was inactive.
